Holding throughout (assay type): cell-based
One test relates to LS411N cells. In words: DHX9 cellular proliferation assay (CellTiter-Glo), LS411N (CRC-MSI). The following applies: Homo sapiens, LS-411N, LS411N, performed at Pharmaron, read-out: LS411N (CRC-MSI-H) Antiproliferative IC50.
In the next test the test system is NCI-H747 cells. In words: DHX9 cellular proliferation assay (CellTiter-Glo), NCI-H747 (CRC-MSS). The following applies: Homo sapiens, performed at Pharmaron, read-out: H747 (CRC-MSS) Antiproliferative IC50.
Test [1] has as its system circBRIP1 in HCT116 cells. In words: DHX9 circBRIP1 cellular target engagement TaqMan Multiplex assay (qPCR). The settings on record: Homo sapiens, read-out: DHX9 Cellular Target Engagement EC50. For orientation: Quantitative PCR measures a nucleic acid by following its amplification.
Where [2] appears, read: HCT-116, 72 h, circBRIP1, HCT116 cells, 72 hours, Taqman assay (marked *).
[3] abbreviates: HCT-116, circBRIP1, HCT116 cells, * Taqman assay was used.

Each structure is given as a SMILES string. Read-outs that look alike come from different tables or passages of the source.

On to `CCS(=O)(=O)Nc1cc(Cl)cc(NC(=O)c2cc(-c3ncc(OC)cn3)c(C)s2)c1` [Example 353], for which the IC50 in the test on LS411N cells (CRC-MSI-H) was 111 nM; in the test with NCI-H747 cells (NCI-H747, NCI-H747, CRC-MSS), 8490 nM. In test [1] (setting [2]), the EC50 worked out at 94 nM.
For `COc1cc(N2CC(F)(F)C2)cnc1-c1cc(C(=O)Nc2cc(Cl)cc(NS(=O)(=O)CCO)c2)sc1C` [Example 528], the IC50 with LS411N cells is 1130 nM; in the test on NCI-H747 cells (NCI-H747, NCI-H747) it was 6960 nM. For the same compound, in test [1] (setting [3]), the EC50 came out at 72.3 nM.
The matching figures for `Cc1sc(C(=O)Nc2cc(Cl)cc(NS(C)(=O)=O)c2)cc1-c1ncc(N2CC(F)(F)C2)cc1OC1CCC1` [Example 514]: 149 nM, more than 10000 nM and 45.5 nM.
With `COc1cc(N2CC(F)(F)C2)cnc1-c1cc(C(=O)Nc2cc(Cl)cc(NS(C)(=O)=O)c2)cn1C` [Example 462], the IC50 in the test on LS411N cells was 257 nM; in the test with NCI-H747 cells (NCI-H747, NCI-H747), more than 10000 nM. In addition, the half-maximal effective concentration (EC50) in test [1] (setting [3]) turned out to be 25.7 nM.
Regarding `CS(=O)(=O)Nc1cc(Cl)cc(NC(=O)c2c[nH]c(-c3ncc(F)cc3F)c2)c1` [Example 560], the IC50 was 145 nM in the test with LS411N cells and more than 10000 nM in the test on NCI-H747 cells (NCI-H747, NCI-H747). Besides, the EC50 in test [1] (setting [3]) was found to be 148 nM.
`Cn1cc(C(=O)Nc2cc(Cl)cc(NS(C)(=O)=O)c2)cc1-c1ncc(N2CCC3(CC2)COC3)cc1F` [Example 475]: the IC50 with LS411N cells was found to be 81.2 nM; in the test on NCI-H747 cells (NCI-H747, NCI-H747), 8770 nM. The EC50 in test [1] (setting [3]) was 31.5 nM.
Regarding `Cn1cc(C(=O)Nc2cc(Cl)cc(NS(C)(=O)=O)c2)cc1-c1ncc(OC2CN(CC(F)F)C2)cc1F` [Example 614], the IC50 was determined as 53.1 nM with LS411N cells and 3190 nM with NCI-H747 cells (NCI-H747, NCI-H747). For the same compound, in test [1] (setting [3]), the EC50 turned out to be 26.9 nM.
Taken in the same sequence, the figures for `Cn1cc(C(=O)Nc2cc(Cl)cc(NS(C)(=O)=O)c2)cc1-c1ncc(N2CC(C(F)(F)F)C2)cn1` [Example 493] were 131 nM, more than 10000 nM and 22 nM.
The matching figures for `Cc1sc(C(=O)Nc2cc(Cl)cc(NS(C)(=O)=O)c2)cc1-c1ncc(F)cc1C#CC(C)(C)O` [Example 696]: 45.1 nM, 7700 nM and 36.7 nM.
On to `Cn1cc(C(=O)Nc2cc(Cl)cc(NS(C)(=O)=O)c2)cc1-c1ncc(OC2CN(CC(F)(F)F)C2)cc1F` [Example 615], for which the IC50 worked out at 71.3 nM in the test with LS411N cells and 7560 nM in the test with NCI-H747 cells (NCI-H747, NCI-H747). Further, the half-maximal effective concentration (EC50) in test [1] (setting [3]) is 133 nM.
As to `Cn1cc(C(=O)Nc2cc(Cl)cc(NS(C)(=O)=O)c2)cc1-c1ccc(C2CCOCC2)cn1` [Example 704], the half-inhibitory concentration (IC50) in the test with LS411N cells stood at 56.9 nM; with NCI-H747 cells (NCI-H747, NCI-H747), 7140 nM. The EC50 in test [1] (setting [3]) came to 25.4 nM.
The matching figures for `CS(=O)(=O)Nc1cc(Cl)cc(NC(=O)c2cc(-c3ncc(N4CC(C(F)(F)F)C4)cn3)n(CC(F)F)c2)c1` [Example 508]: 108 nM, 6460 nM and 63.4 nM.
Turning to `Cn1cc(C(=O)Nc2cc(Cl)cc(NS(C)(=O)=O)c2)cc1-c1ncc(N2CC(F)C2)cc1F` [Example 466], the IC50 in the test with LS411N cells was determined as 350 nM; in the test with NCI-H747 cells (NCI-H747, NCI-H747), 4850 nM. For the same compound, the EC50 in test [1] (setting [3]) was determined as 52.4 nM.
Taken in the same sequence, the figures for `CS(=O)(=O)Nc1cc(Cl)cc(NC(=O)c2cc(-c3ncc(N4CC(F)(F)C4)cn3)cs2)c1` [Example 486] were 112 nM, 1990 nM and 31.1 nM.
Turning to `Cc1sc(C(=O)Nc2cc(Cl)cc(NS(C)(=O)=O)c2)cc1-c1ncc(F)cc1F` [Example 349], the IC50 was 154 nM in the test on LS411N cells (CRC-MSI-H) and more than 10000 nM with NCI-H747 cells (NCI-H747, NCI-H747, CRC-MSS). In test [1] (setting [2]), the EC50 was determined as 58.2 nM.
Take `COC(=O)N1CCN(c2cnc(-c3cc(C(=O)Nc4cc(Cl)cc(NS(C)(=O)=O)c4)sc3C)c(C)c2)CC1` [Example 601]: the IC50 with LS411N cells is 64.5 nM; with NCI-H747 cells (NCI-H747, NCI-H747), more than 10000 nM. Moreover, the EC50 in test [1] (setting [3]) was 106 nM.
For the compound `CCS(=O)(=O)Nc1cc(Cl)cc(NC(=O)c2cc(-c3ncc(OC)cc3F)c(C)s2)c1` [Example 360], the IC50 turned out to be 235 nM with LS411N cells (CRC-MSI-H) and 7070 nM in the test with NCI-H747 cells (NCI-H747, NCI-H747, CRC-MSS). Moreover, in test [1] (setting [2]), the EC50 turned out to be 52.1 nM.

As a reminder, the IC50 is the midpoint of a concentration-inhibition curve. For orientation: EC50 means the concentration at which the effect is half-maximal.

These data come from patent publication US12162867B2, “Inhibitors of RNA helicase DHX9 and uses thereof” (ACCENT THERAPEUTICS, INC., priority 2022, dated 2024).
